Converted amounts (≈) assume the structure as drawn. The source made the active and inactive calls. The calls are words filed in the database; no cut-off is given here.
What follows are compounds tested on Candida albicans (assay: Antimicrobial activity against Candida albicans DSM 1665 after 18 hrs by twofold serial dilution method). Settings: not given.
Type: functional

| Compound | MIC |
| --- | --- |
| CC(C)CCCC(C)CCCC(C)CCCC(C)CCc1cc(O)ccc1O (stereo unspecified) | inactive |
| CC(C)=CCC/C(C)=C/CC/C(C)=C/CC/C(C)=C/CC/C(C)=C/CC/C(C)=C/CC1=CC(=O)C=CC1=O | inactive |

Same assay, conditions: DSM 1665, 18 h

| Compound | MIC |
| --- | --- |
| Cc1cc(O)ccc1O [METHYLHYDROQUINONE] | > 50 µg/mL |
| CC1=CC(=O)C=CC1=O [Cresoquinone] | > 50 µg/mL |
| CC(C)=CCC1=CC(=O)C=CC1=O | > 50 µg/mL |
| Clc1ccc(COC(Cn2ccnc2)c2ccc(Cl)cc2Cl)c(Cl)c1 (stereo unspecified) [MICONAZOLE] | 1.56 µg/mL (≈ 3.75 µM) |
| CC(C)=CCC/C(C)=C/CC1=CC(=O)C=CC1=O | 25 µg/mL (≈ 102 µM) |
| CC(C)CCc1cc(O)ccc1O | > 50 µg/mL |
| O=C1C=CC(=O)C=C1 [BENZOQUINONE] | 25 µg/mL (≈ 231 µM) |
| CC(C)=CCc1cc(O)ccc1O [PRENYLHYDROQUINONE] | > 50 µg/mL |
| CC(C)=CCC/C(C)=C/Cc1cc(O)ccc1O [GEROQUINOL] | 25 µg/mL (≈ 101 µM) |

These compounds were tested on Bacillus subtilis (assay: Antimicrobial activity against Bacillus subtilis DSM 347 after 18 hrs by twofold serial dilution method). Settings: not given.
Type: functional

| Compound | MIC |
| --- | --- |
| GENTAMICIN | 0.78 µg/mL |
| CC(C)CCCC(C)CCCC(C)CCCC(C)CCc1cc(O)ccc1O (stereo unspecified) | inactive |
| CC(C)=CCC/C(C)=C/CC/C(C)=C/CC/C(C)=C/CC/C(C)=C/CC/C(C)=C/CC1=CC(=O)C=CC1=O | inactive |

Same assay, conditions: DSM 347, 18 h

| Compound | MIC |
| --- | --- |
| Cc1cc(O)ccc1O [METHYLHYDROQUINONE] | 25 µg/mL (≈ 201 µM) |
| CC1=CC(=O)C=CC1=O [Cresoquinone] | 25 µg/mL (≈ 205 µM) |
| CC(C)=CCC1=CC(=O)C=CC1=O | 25 µg/mL (≈ 142 µM) |
| CC(C)=CCC/C(C)=C/CC1=CC(=O)C=CC1=O | 12.5 µg/mL (≈ 51.2 µM) |
| CC(C)CCc1cc(O)ccc1O | 12.5 µg/mL (≈ 69.3 µM) |
| O=C1C=CC(=O)C=C1 [BENZOQUINONE] | > 50 µg/mL |
| CC(C)=CCc1cc(O)ccc1O [PRENYLHYDROQUINONE] | > 50 µg/mL |
| CC(C)=CCC/C(C)=C/Cc1cc(O)ccc1O [GEROQUINOL] | 6.25 µg/mL (≈ 25.4 µM) |

What follows are compounds tested on Artemia salina (assay: Toxicity against Artemia salina after 24 hrs). Settings: in vivo.

| Compound | LC50 |
| --- | --- |
| Cc1cc(O)ccc1O [METHYLHYDROQUINONE] | > 10 ppm |
| CC1=CC(=O)C=CC1=O [Cresoquinone] | 1.06 ppm |
| CC(C)=CCC1=CC(=O)C=CC1=O | 0.19 ppm |
| CC(C)=CCC/C(C)=C/CC1=CC(=O)C=CC1=O | 0.05 ppm |
| CC(C)CCc1cc(O)ccc1O | 0.29 ppm |
| CC(C)=CCc1cc(O)ccc1O [PRENYLHYDROQUINONE] | 0.54 ppm |
| CC(C)CCCC(C)CCCC(C)CCCC(C)CCc1cc(O)ccc1O (stereo unspecified) | 0.02 ppm |
| CC(C)=CCC/C(C)=C/Cc1cc(O)ccc1O [GEROQUINOL] | 0.01 ppm |

Each compound was assayed on Micrococcus luteus (assay: Antimicrobial activity against Micrococcus luteus DSM 348 after 18 hrs by twofold serial dilution method). Settings: not given.
Type: functional

| Compound | MIC |
| --- | --- |
| GENTAMICIN | 1.56 µg/mL |
| CC(C)CCCC(C)CCCC(C)CCCC(C)CCc1cc(O)ccc1O (stereo unspecified) | inactive |
| CC(C)=CCC/C(C)=C/CC/C(C)=C/CC/C(C)=C/CC/C(C)=C/CC/C(C)=C/CC1=CC(=O)C=CC1=O | inactive |

Same assay, conditions: DSM 348, 18 h

| Compound | MIC |
| --- | --- |
| Cc1cc(O)ccc1O [METHYLHYDROQUINONE] | > 50 µg/mL |
| CC1=CC(=O)C=CC1=O [Cresoquinone] | > 50 µg/mL |
| CC(C)=CCC1=CC(=O)C=CC1=O | 25 µg/mL (≈ 142 µM) |
| CC(C)=CCC/C(C)=C/CC1=CC(=O)C=CC1=O | 12.5 µg/mL (≈ 51.2 µM) |
| CC(C)CCc1cc(O)ccc1O | 6.25 µg/mL (≈ 34.7 µM) |
| O=C1C=CC(=O)C=C1 [BENZOQUINONE] | > 50 µg/mL |
| CC(C)=CCc1cc(O)ccc1O [PRENYLHYDROQUINONE] | 25 µg/mL (≈ 140 µM) |
| CC(C)=CCC/C(C)=C/Cc1cc(O)ccc1O [GEROQUINOL] | 12.5 µg/mL (≈ 50.7 µM) |

Each compound was assayed on Pseudomonas aeruginosa (assay: Antimicrobial activity against Pseudomonas aeruginosa DSM 1117 after 18 hrs by twofold serial dilution method). Settings: not given.
Type: functional, organism-based

| Compound | Activity |
| --- | --- |
| GENTAMICIN | inactive |
| Cc1cc(O)ccc1O [METHYLHYDROQUINONE] | inactive |
| CC1=CC(=O)C=CC1=O [Cresoquinone] | inactive |
| CC(C)=CCC1=CC(=O)C=CC1=O | inactive |
| Clc1ccc(COC(Cn2ccnc2)c2ccc(Cl)cc2Cl)c(Cl)c1 (stereo unspecified) [MICONAZOLE] | inactive |
| CC(C)=CCC/C(C)=C/CC1=CC(=O)C=CC1=O | inactive |
| C=C(C)[C@H]1Cc2c(ccc3c2O[C@@H]2COc4cc(OC)c(OC)cc4[C@@H]2C3=O)O1 [ROTENONE] | inactive |
| CC(C)CCc1cc(O)ccc1O | inactive |
| O=C1C=CC(=O)C=C1 [BENZOQUINONE] | inactive |
| CC(C)=CCc1cc(O)ccc1O [PRENYLHYDROQUINONE] | inactive |
| CC(C)CCCC(C)CCCC(C)CCCC(C)CCc1cc(O)ccc1O (stereo unspecified) | inactive |
| CC(C)=CCC/C(C)=C/CC/C(C)=C/CC/C(C)=C/CC/C(C)=C/CC/C(C)=C/CC1=CC(=O)C=CC1=O | inactive |
| CC(C)=CCC/C(C)=C/Cc1cc(O)ccc1O [GEROQUINOL] | inactive |

Each compound was assayed on Gambusia affinis (assay: Toxicity against Gambusia affinis). Settings: in vivo.

| Compound | LC50 |
| --- | --- |
| Cc1cc(O)ccc1O [METHYLHYDROQUINONE] | 38.5 ppm |
| CC1=CC(=O)C=CC1=O [Cresoquinone] | 5.4 ppm |
| CC(C)=CCC1=CC(=O)C=CC1=O | 1.4 ppm |
| CC(C)=CCC/C(C)=C/CC1=CC(=O)C=CC1=O | 0.2 ppm |
| C=C(C)[C@H]1Cc2c(ccc3c2O[C@@H]2COc4cc(OC)c(OC)cc4[C@@H]2C3=O)O1 [ROTENONE] | 0.03 ppm |
| CC(C)CCc1cc(O)ccc1O | 3.3 ppm |
| CC(C)=CCc1cc(O)ccc1O [PRENYLHYDROQUINONE] | 22.2 ppm |
| CC(C)CCCC(C)CCCC(C)CCCC(C)CCc1cc(O)ccc1O (stereo unspecified) | 43.6 ppm |
| CC(C)=CCC/C(C)=C/Cc1cc(O)ccc1O [GEROQUINOL] | 4.6 ppm |

These compounds were tested on Escherichia coli (assay: Antimicrobial activity against Escherichia coli DSM 1103 after 18 hrs by twofold serial dilution method). Settings: not given.
Type: functional, organism-based

| Compound | Activity |
| --- | --- |
| GENTAMICIN | inactive |
| Cc1cc(O)ccc1O [METHYLHYDROQUINONE] | inactive |
| CC1=CC(=O)C=CC1=O [Cresoquinone] | inactive |
| CC(C)=CCC1=CC(=O)C=CC1=O | inactive |
| Clc1ccc(COC(Cn2ccnc2)c2ccc(Cl)cc2Cl)c(Cl)c1 (stereo unspecified) [MICONAZOLE] | inactive |
| CC(C)=CCC/C(C)=C/CC1=CC(=O)C=CC1=O | inactive |
| C=C(C)[C@H]1Cc2c(ccc3c2O[C@@H]2COc4cc(OC)c(OC)cc4[C@@H]2C3=O)O1 [ROTENONE] | inactive |
| CC(C)CCc1cc(O)ccc1O | inactive |
| O=C1C=CC(=O)C=C1 [BENZOQUINONE] | inactive |
| CC(C)=CCc1cc(O)ccc1O [PRENYLHYDROQUINONE] | inactive |
| CC(C)CCCC(C)CCCC(C)CCCC(C)CCc1cc(O)ccc1O (stereo unspecified) | inactive |
| CC(C)=CCC/C(C)=C/CC/C(C)=C/CC/C(C)=C/CC/C(C)=C/CC/C(C)=C/CC1=CC(=O)C=CC1=O | inactive |
| CC(C)=CCC/C(C)=C/Cc1cc(O)ccc1O [GEROQUINOL] | inactive |
